Data: the NIST ThermoML archive (doi:10.1021/je900387e)
Numbers after ± are expanded uncertainties.

Assay: xn = mol fraction of the nth substance listed
Conditions: Liquid, Pycnometric method

Compound `CCCCBr` [1-bromobutane] + O=C=O has a mass density (316.1 K, 8510 kPa, x1 = 0.0245) of 593 ± 4 kg/m3, a mass density (316.1 K, 8560 kPa, x1 = 0.0245) of 604 ± 4 kg/m3 and a mass density (316.1 K, 8620 kPa, x1 = 0.0245) of 615 ± 4 kg/m3. For the same compound, the mass density (316.1 K, 8690 kPa, x1 = 0.0245) was 627 ± 4 kg/m3, the mass density (316.1 K, 8780 kPa, x1 = 0.0245) was 639 ± 4 kg/m3 and the mass density (316.1 K, 8880 kPa, x1 = 0.0245) was 652 ± 4 kg/m3. For the same compound, the mass density (316.1 K, 9000 kPa, x1 = 0.0245) was 665 ± 4 kg/m3, the mass density (316.1 K, 9150 kPa, x1 = 0.0245) was 683 ± 4 kg/m3 and the mass density (316.1 K, 9340 kPa, x1 = 0.0245) was 694 ± 4 kg/m3. For the same compound, the mass density (316.1 K, 9560 kPa, x1 = 0.0245) was 709 ± 4 kg/m3, the mass density (316.1 K, 9850 kPa, x1 = 0.0245) was 725 ± 4 kg/m3 and the mass density (316.1 K, 10200 kPa, x1 = 0.0245) was 741 ± 4 kg/m3. It also gave a mass density (316.1 K, 10240 kPa, x1 = 0.0245) of 743 ± 4 kg/m3, a mass density (316.1 K, 10290 kPa, x1 = 0.0245) of 746 ± 4 kg/m3 and a mass density (316.1 K, 10350 kPa, x1 = 0.0245) of 750 ± 4 kg/m3. For the same compound, the mass density (317.9 K, 7540 kPa, x1 = 0.1495) was 964 ± 4 kg/m3, the mass density (317.9 K, 7770 kPa, x1 = 0.1495) was 967 ± 4 kg/m3 and the mass density (317.9 K, 7950 kPa, x1 = 0.0989) was 850 ± 4 kg/m3. It also gave a mass density (317.9 K, 7990 kPa, x1 = 0.1495) of 970 ± 4 kg/m3, a mass density (317.9 K, 8090 kPa, x1 = 0.0989) of 853 ± 4 kg/m3 and a mass density (317.9 K, 8230 kPa, x1 = 0.0683) of 777 ± 4 kg/m3. It also gave a mass density (317.9 K, 8230 kPa, x1 = 0.1495) of 974 ± 4 kg/m3, a mass density (317.9 K, 8330 kPa, x1 = 0.0461) of 703 ± 4 kg/m3 and a mass density (317.9 K, 8340 kPa, x1 = 0.0683) of 780 ± 4 kg/m3. It also gave a mass density (317.9 K, 8370 kPa, x1 = 0.0461) of 705 ± 4 kg/m3, a mass density (317.9 K, 8370 kPa, x1 = 0.0989) of 859 ± 4 kg/m3 and a mass density (317.9 K, 8450 kPa, x1 = 0.0245) of 491 ± 4 kg/m3. The mass density (317.9 K, 8450 kPa, x1 = 0.0461) was 712 ± 4 kg/m3, the mass density (317.9 K, 8450 kPa, x1 = 0.1495) was 977 ± 4 kg/m3 and the mass density (317.9 K, 8460 kPa, x1 = 0.0245) was 493 ± 4 kg/m3. The mass density (317.9 K, 8480 kPa, x1 = 0.0245) was 499 ± 4 kg/m3, the mass density (317.9 K, 8490 kPa, x1 = 0.0683) was 786 ± 4 kg/m3 and the mass density (317.9 K, 8500 kPa, x1 = 0.0245) was 506 ± 4 kg/m3. For the same compound, the mass density (317.9 K, 8530 kPa, x1 = 0.0245) was 512 ± 4 kg/m3, the mass density (317.9 K, 8550 kPa, x1 = 0.0245) was 518 ± 4 kg/m3 and the mass density (317.9 K, 8550 kPa, x1 = 0.0461) was 721 ± 4 kg/m3. For the same compound, the mass density (317.9 K, 8570 kPa, x1 = 0.0245) was 525 ± 4 kg/m3, the mass density (317.9 K, 8600 kPa, x1 = 0.0245) was 532 ± 4 kg/m3 and the mass density (317.9 K, 8620 kPa, x1 = 0.0245) was 540 ± 4 kg/m3. For the same compound, the mass density (317.9 K, 8630 kPa, x1 = 0.0683) was 791 ± 4 kg/m3, the mass density (317.9 K, 8650 kPa, x1 = 0.0245) was 547 ± 4 kg/m3 and the mass density (317.9 K, 8650 kPa, x1 = 0.0989) was 865 ± 4 kg/m3. The mass density (317.9 K, 8660 kPa, x1 = 0.1495) was 980 ± 4 kg/m3, the mass density (317.9 K, 8680 kPa, x1 = 0.0461) was 731 ± 4 kg/m3 and the mass density (317.9 K, 8690 kPa, x1 = 0.0245) was 555 ± 4 kg/m3. The mass density (317.9 K, 8720 kPa, x1 = 0.0245) was 563 ± 4 kg/m3, the mass density (317.9 K, 8770 kPa, x1 = 0.0245) was 571 ± 4 kg/m3 and the mass density (317.9 K, 8790 kPa, x1 = 0.0683) was 797 ± 4 kg/m3. It also gave a mass density (317.9 K, 8800 kPa, x1 = 0.0245) of 579 ± 4 kg/m3, a mass density (317.9 K, 8820 kPa, x1 = 0.0245) of 583 ± 4 kg/m3 and a mass density (317.9 K, 8840 kPa, x1 = 0.0245) of 588 ± 4 kg/m3. For the same compound, the mass density (317.9 K, 8840 kPa, x1 = 0.0461) was 741 ± 4 kg/m3, the mass density (317.9 K, 8870 kPa, x1 = 0.0245) was 589 ± 4 kg/m3 and the mass density (317.9 K, 8890 kPa, x1 = 0.0245) was 597 ± 4 kg/m3. For the same compound, the mass density (317.9 K, 8920 kPa, x1 = 0.0245) was 601 ± 4 kg/m3, the mass density (317.9 K, 8940 kPa, x1 = 0.0683) was 802 ± 4 kg/m3 and the mass density (317.9 K, 8950 kPa, x1 = 0.0989) was 871 ± 4 kg/m3. For the same compound, the mass density (317.9 K, 8960 kPa, x1 = 0.0245) was 608 ± 4 kg/m3, the mass density (317.9 K, 8960 kPa, x1 = 0.0461) was 748 ± 4 kg/m3 and the mass density (317.9 K, 8990 kPa, x1 = 0.1495) was 984 ± 4 kg/m3. It also gave a mass density (317.9 K, 9100 kPa, x1 = 0.0461) of 756 ± 4 kg/m3, a mass density (317.9 K, 9130 kPa, x1 = 0.0683) of 808 ± 4 kg/m3 and a mass density (317.9 K, 9250 kPa, x1 = 0.1495) of 987 ± 4 kg/m3. For the same compound, the mass density (317.9 K, 9270 kPa, x1 = 0.0461) was 764 ± 4 kg/m3, the mass density (317.9 K, 9300 kPa, x1 = 0.0989) was 877 ± 4 kg/m3 and the mass density (317.9 K, 9330 kPa, x1 = 0.0683) was 814 ± 4 kg/m3. For the same compound, the mass density (317.9 K, 9530 kPa, x1 = 0.0461) was 774 ± 4 kg/m3, the mass density (317.9 K, 9540 kPa, x1 = 0.0683) was 820 ± 4 kg/m3 and the mass density (317.9 K, 9580 kPa, x1 = 0.1495) was 990 ± 4 kg/m3. For the same compound, the mass density (317.9 K, 9670 kPa, x1 = 0.0989) was 884 ± 4 kg/m3, the mass density (317.9 K, 9770 kPa, x1 = 0.0683) was 826 ± 4 kg/m3 and the mass density (317.9 K, 9810 kPa, x1 = 0.0461) was 785 ± 4 kg/m3. For the same compound, the mass density (317.9 K, 9860 kPa, x1 = 0.1495) was 993 ± 4 kg/m3, the mass density (317.9 K, 10030 kPa, x1 = 0.0683) was 832 ± 4 kg/m3 and the mass density (317.9 K, 10050 kPa, x1 = 0.0989) was 890 ± 4 kg/m3. It also gave a mass density (317.9 K, 10160 kPa, x1 = 0.0461) of 796 ± 4 kg/m3, a mass density (317.9 K, 10240 kPa, x1 = 0.1495) of 997 ± 4 kg/m3 and a mass density (317.9 K, 10310 kPa, x1 = 0.0683) of 838 ± 4 kg/m3. It also gave a mass density (317.9 K, 10500 kPa, x1 = 0.0989) of 897 ± 4 kg/m3, a mass density (317.9 K, 10560 kPa, x1 = 0.1495) of 1000 ± 4 kg/m3 and a mass density (317.9 K, 10590 kPa, x1 = 0.0461) of 809 ± 4 kg/m3. For the same compound, the mass density (317.9 K, 10630 kPa, x1 = 0.0683) was 845 ± 4 kg/m3, the mass density (317.9 K, 10930 kPa, x1 = 0.1495) was 1004 ± 4 kg/m3 and the mass density (317.9 K, 10940 kPa, x1 = 0.0683) was 850 ± 4 kg/m3. The mass density (317.9 K, 10950 kPa, x1 = 0.0989) was 903 ± 4 kg/m3, the mass density (317.9 K, 11060 kPa, x1 = 0.0461) was 821 ± 4 kg/m3 and the mass density (317.9 K, 11270 kPa, x1 = 0.1495) was 1007 ± 4 kg/m3. It also gave a mass density (317.9 K, 11310 kPa, x1 = 0.0683) of 858 ± 4 kg/m3, a mass density (317.9 K, 11470 kPa, x1 = 0.0989) of 910 ± 4 kg/m3 and a mass density (317.9 K, 11600 kPa, x1 = 0.0461) of 833 ± 4 kg/m3. It also gave a mass density (317.9 K, 11690 kPa, x1 = 0.0683) of 863 ± 4 kg/m3, a mass density (317.9 K, 11700 kPa, x1 = 0.1495) of 1011 ± 4 kg/m3 and a mass density (317.9 K, 11870 kPa, x1 = 0.0683) of 867 ± 4 kg/m3. The mass density (317.9 K, 11890 kPa, x1 = 0.0461) was 839 ± 4 kg/m3.
